Measured values published in PMC7260718, “Novel routes towards bioplastics from plants: elucidation of the methylperillate biosynthesis pathway from Salvia dorisiana trichomes” (Journal of Experimental Botany, 2020).

Tests used:
SdEuS = target: T1, SdEuS (Salvia dorisiana, UniProt A0A6G5RUA2); test: in vitro terpene synthase assay, GC-MS; assay type: cell-based; details: product eucalyptol; conditions by reference to earlier study
T1 construct: gene EuS; plastid targeting signal removed, pCDF-duet, E. coli
T1 sequence (A0A6G5RUA2 55-578): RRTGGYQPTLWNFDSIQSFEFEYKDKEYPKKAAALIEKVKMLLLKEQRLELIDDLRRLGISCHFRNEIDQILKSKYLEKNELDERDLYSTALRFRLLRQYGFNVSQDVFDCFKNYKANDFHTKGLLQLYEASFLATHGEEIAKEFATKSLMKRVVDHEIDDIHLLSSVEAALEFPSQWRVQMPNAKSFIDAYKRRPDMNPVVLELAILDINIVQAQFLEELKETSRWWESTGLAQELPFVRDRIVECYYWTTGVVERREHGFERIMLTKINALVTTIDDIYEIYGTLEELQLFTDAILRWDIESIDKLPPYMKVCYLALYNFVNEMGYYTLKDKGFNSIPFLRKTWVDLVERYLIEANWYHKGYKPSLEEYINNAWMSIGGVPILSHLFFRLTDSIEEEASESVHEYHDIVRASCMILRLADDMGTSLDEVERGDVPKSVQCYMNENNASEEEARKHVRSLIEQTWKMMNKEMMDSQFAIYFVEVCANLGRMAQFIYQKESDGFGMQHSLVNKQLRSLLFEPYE

SdPCS = target: T2, SdPCS (Salvia dorisiana, UniProt A0A6G5RV47); test: in vitro terpene synthase assay, GC-MS; assay type: cell-based; details: products alpha-pinene and camphene; conditions by reference to earlier study
T2 construct: gene PCS; plastid targeting signal removed, pCDF-duet, E. coli
T2 sequence (A0A6G5RV47 52-589): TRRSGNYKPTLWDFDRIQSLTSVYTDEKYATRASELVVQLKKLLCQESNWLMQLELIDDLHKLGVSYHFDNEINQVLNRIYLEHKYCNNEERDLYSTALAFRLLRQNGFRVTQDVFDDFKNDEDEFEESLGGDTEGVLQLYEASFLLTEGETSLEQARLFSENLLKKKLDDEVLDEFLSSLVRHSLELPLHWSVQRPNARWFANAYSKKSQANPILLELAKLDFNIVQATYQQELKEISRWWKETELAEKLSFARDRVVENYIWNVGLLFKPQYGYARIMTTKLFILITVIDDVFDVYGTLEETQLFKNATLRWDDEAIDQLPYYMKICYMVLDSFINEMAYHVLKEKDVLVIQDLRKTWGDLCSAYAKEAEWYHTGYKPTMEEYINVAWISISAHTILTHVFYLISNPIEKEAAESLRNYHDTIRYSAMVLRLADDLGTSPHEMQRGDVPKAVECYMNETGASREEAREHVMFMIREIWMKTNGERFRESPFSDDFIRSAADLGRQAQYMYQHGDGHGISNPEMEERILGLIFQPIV

SdPS = target: T3, SdPS (Salvia dorisiana, UniProt A0A6G5RTD3); test: in vitro terpene synthase assay, GC-MS; assay type: cell-based; details: product beta-pinene; conditions by reference to earlier study
T3 construct: gene PS; plastid targeting signal removed, pCDF-duet, E. coli
T3 sequence (A0A6G5RTD3 60-600): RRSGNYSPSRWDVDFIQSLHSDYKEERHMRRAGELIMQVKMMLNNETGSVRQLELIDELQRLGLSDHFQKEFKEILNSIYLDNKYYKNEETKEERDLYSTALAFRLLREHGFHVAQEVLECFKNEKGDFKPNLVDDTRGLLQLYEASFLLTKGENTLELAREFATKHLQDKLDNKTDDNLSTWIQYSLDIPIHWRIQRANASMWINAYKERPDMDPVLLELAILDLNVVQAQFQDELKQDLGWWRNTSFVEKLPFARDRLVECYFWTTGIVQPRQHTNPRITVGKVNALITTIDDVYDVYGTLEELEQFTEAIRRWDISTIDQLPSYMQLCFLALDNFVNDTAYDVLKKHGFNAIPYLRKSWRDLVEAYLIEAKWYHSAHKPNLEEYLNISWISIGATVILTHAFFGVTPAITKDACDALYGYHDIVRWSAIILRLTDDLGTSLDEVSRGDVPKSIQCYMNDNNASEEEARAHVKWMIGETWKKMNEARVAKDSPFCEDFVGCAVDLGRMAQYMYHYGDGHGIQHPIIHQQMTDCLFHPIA

SdSaS = target: T4, SdSaS (Salvia dorisiana, UniProt A0A6G5RTE6); test: in vitro terpene synthase assay, GC-MS; assay type: cell-based; details: product sabinene; conditions by reference to earlier study
T4 construct: gene SaS; plastid targeting signal removed, pCDF-duet, E. coli
T4 sequence (A0A6G5RTE6 1-538): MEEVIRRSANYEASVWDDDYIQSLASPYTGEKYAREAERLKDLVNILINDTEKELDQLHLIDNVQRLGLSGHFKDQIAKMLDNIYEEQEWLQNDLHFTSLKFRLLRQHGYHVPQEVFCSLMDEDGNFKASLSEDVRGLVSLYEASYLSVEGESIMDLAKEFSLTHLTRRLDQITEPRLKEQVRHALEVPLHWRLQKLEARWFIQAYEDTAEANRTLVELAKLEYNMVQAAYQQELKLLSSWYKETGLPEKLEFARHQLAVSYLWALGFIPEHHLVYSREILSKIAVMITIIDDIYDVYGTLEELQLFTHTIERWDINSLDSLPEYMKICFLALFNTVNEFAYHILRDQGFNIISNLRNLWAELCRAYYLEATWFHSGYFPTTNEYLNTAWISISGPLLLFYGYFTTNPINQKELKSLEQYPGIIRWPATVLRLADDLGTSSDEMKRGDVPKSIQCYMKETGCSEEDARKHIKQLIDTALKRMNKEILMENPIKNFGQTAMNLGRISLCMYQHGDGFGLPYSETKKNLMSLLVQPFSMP

SdLiS = target: T5, SdLiS (Salvia dorisiana, UniProt A0A6G5RUG7); test: in vitro terpene synthase assay, GC-MS; assay type: cell-based; details: product linalool; conditions by reference to earlier study
T5 construct: gene LiS; plastid targeting signal removed, pCDF-duet, E. coli
T5 sequence (A0A6G5RUG7 55-582 limits assumed): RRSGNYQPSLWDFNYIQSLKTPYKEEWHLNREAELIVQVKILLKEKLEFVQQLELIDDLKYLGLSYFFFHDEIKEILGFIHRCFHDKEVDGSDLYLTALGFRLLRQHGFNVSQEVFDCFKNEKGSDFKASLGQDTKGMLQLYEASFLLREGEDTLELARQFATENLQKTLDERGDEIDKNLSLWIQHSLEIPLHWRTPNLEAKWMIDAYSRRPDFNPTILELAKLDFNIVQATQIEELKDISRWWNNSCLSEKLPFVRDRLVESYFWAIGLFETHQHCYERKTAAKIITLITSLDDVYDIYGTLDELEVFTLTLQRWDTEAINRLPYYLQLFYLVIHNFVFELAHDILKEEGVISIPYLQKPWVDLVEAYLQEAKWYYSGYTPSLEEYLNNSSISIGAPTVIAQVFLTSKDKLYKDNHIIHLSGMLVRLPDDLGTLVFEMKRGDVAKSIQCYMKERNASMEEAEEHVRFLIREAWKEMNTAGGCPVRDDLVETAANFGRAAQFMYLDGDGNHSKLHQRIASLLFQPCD

SdL7H = target: T6, SdL7H (Salvia dorisiana, UniProt A0A6G5RTT4); test: GC-MS of perillyl alcohol in culture extract; assay type: cell-based; details: yeast co-expressing limonene synthase, 30 °C, 96 h; also N. benthamiana with SdLS
T6 construct: gene L7H; expressed in Saccharomyces cerevisiae (limonene-producing strain Sc-PftLS) from pTEF plasmid; also in Nicotiana benthamiana
T6 sequence (A0A6G5RTT4 1-494): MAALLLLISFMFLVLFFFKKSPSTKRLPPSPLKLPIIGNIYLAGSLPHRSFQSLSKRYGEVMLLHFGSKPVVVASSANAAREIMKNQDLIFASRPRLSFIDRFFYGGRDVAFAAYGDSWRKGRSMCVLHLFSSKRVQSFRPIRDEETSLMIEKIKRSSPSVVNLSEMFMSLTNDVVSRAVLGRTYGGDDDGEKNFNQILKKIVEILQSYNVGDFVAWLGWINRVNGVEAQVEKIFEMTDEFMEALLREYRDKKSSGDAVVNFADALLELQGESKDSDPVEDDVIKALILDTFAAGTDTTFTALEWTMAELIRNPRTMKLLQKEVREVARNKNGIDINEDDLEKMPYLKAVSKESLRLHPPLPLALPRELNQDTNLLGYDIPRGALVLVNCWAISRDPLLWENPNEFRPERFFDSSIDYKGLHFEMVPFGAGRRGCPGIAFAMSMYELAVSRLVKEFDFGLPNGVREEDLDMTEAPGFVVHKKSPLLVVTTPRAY

SdPAOMT = target: T7, SdPAOMT (Salvia dorisiana, UniProt A0A6G5RV57); test: GC-MS of methyl ester product; assay type: biochemical; details: E. coli cell-free extract; 1 mM substrate, 1.28 mM SAM (from stocks), Tris-HCl pH 7.0, room temperature, 1 h
T7 construct: gene PAOMT; full length, pCDF-duet, E. coli BL21(DE3) cell-free extract
T7 sequence (A0A6G5RV57 1-359): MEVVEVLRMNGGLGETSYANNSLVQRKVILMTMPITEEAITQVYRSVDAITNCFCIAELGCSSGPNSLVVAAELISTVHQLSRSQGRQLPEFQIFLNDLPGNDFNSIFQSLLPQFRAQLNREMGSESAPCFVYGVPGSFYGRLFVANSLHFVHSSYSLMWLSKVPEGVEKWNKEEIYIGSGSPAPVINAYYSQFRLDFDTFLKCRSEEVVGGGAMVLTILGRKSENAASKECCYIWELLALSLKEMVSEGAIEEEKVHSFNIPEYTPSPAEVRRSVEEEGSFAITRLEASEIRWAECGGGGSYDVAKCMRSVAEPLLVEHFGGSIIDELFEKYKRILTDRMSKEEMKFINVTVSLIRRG

SdOMT4 = target: T8, SdOMT4 (Salvia dorisiana, UniProt A0A6G5RUB3); test: headspace GC-MS of methylperillate; details: N. benthamiana leaves co-infiltrated with perillic acid; minor activity
T8 construct: gene OMT4; transient expression in Nicotiana benthamiana leaves
T8 sequence (A0A6G5RUB3 1-349): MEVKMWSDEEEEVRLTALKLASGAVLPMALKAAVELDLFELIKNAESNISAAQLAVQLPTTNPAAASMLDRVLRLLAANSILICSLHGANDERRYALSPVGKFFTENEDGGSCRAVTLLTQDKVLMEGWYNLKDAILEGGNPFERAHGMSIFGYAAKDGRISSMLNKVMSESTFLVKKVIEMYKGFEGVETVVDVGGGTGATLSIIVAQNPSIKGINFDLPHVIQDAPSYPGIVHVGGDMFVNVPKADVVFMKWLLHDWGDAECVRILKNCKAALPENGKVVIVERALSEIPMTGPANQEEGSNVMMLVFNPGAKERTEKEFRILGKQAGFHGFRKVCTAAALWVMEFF

SdOMT9 = target: T9, SdOMT9 (Salvia dorisiana, UniProt A0A6G5RTF7); test: headspace GC-MS of methylperillate; details: N. benthamiana leaves co-infiltrated with perillic acid; minor activity
T9 construct: gene OMT9; transient expression in Nicotiana benthamiana leaves
T9 sequence (A0A6G5RTF7 1-344): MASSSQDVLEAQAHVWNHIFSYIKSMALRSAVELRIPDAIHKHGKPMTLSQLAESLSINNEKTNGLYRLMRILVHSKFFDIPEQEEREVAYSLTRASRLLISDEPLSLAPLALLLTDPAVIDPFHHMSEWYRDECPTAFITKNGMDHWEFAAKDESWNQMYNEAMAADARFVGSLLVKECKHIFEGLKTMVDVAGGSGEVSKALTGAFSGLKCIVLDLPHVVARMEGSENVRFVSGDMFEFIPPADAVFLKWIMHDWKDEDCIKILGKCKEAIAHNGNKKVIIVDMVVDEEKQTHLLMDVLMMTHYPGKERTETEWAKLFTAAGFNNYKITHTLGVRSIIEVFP

SdPOHDH = target: T10, SdPOHDH (Salvia dorisiana, UniProt A0A6G5RUH8); test: LC-MS of perillyl aldehyde markers; details: N. benthamiana leaves infiltrated with 400 µM perillyl alcohol, 4 h
T10 construct: gene POHDH; transient expression in Nicotiana benthamiana leaves (pB7WG2)
T10 sequence (A0A6G5RUH8 1-370): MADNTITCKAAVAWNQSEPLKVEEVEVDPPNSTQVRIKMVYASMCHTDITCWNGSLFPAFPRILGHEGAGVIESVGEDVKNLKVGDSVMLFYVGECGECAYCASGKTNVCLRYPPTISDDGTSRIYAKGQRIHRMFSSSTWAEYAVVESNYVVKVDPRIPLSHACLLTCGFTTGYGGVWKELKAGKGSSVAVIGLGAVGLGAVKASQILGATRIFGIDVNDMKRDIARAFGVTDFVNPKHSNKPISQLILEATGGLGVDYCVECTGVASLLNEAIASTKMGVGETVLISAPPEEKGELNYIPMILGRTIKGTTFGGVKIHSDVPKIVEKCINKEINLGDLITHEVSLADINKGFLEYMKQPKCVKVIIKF

Question: Which results are given for CC(C)=CCC/C(C)=C/COP(=O)(O)OP(=O)(O)O [geranyl diphosphate]?
Answer: in vitro terpene synthase assay, GC-MS (SdEuS): a eucalyptol synthase SdEuS; in vitro terpene synthase assay, GC-MS (SdPCS): an α-pinene/camphene synthase SdPCS; in vitro terpene synthase assay, GC-MS (SdPS): characterized by in vitro assays, including a β-pinene synthase SdPS; in vitro terpene synthase assay, GC-MS (SdSaS): a sabinene synthase SdSaS; in vitro terpene synthase assay, GC-MS (SdLiS): a linalool synthase SdLiS

Question: How did the “GC-MS of perillyl alcohol in culture extract” value (SdL7H) turn out when C=C(C)[C@@H]1CC=C(C)CC1 [limonene] was run?
Answer: indicating that limonene is indeed used as a substrate

Question: For C=C(C)[C@@H]1CC=C(C(=O)O)CC1 [perillic acid], which “GC-MS of methyl ester product” value (SdPAOMT) is on record?
Answer: Cell-free extracts were tested with BA, SA, and PA as substrates, and SAM as methyl donor

Question: And the “headspace GC-MS of methylperillate” value (SdOMT4)?
Answer: only SdOMT4 and SdOMT9 showed minor MePA formation

Question: And the “headspace GC-MS of methylperillate” value (SdOMT9)?
Answer: only SdOMT4 and SdOMT9 showed minor MePA formation

Question: With C=C(C)[C@@H]1CC=C(CO)CC1 [perillyl alcohol] as the compound, how does the “LC-MS of perillyl aldehyde markers” value (SdPOHDH) read?
Answer: SdPOHDH converted POH to PAldH

Question: How did the “GC-MS of methyl ester product” value (SdPAOMT) turn out when O=C(O)c1ccccc1O [salicylic acid] was run?
Answer: Methylated products were detected for all three substrates
